The text below walks through data of patent US5021569A, “4-azatricyclo[4.3.1.1(3,8)]undecylarylpiperazines with anxiolytic activity” (priority 1990, dated 1991).

One test deals with 5-HT1A receptor. The settings on record: background literature; cited from earlier work.
For test [1], the target named is T1, 5-HT1A serotonin receptor subtype (Rattus norvegicus, UniProt P19327).
T1 construct: from tissue
T1 sequence (P19327 1-422): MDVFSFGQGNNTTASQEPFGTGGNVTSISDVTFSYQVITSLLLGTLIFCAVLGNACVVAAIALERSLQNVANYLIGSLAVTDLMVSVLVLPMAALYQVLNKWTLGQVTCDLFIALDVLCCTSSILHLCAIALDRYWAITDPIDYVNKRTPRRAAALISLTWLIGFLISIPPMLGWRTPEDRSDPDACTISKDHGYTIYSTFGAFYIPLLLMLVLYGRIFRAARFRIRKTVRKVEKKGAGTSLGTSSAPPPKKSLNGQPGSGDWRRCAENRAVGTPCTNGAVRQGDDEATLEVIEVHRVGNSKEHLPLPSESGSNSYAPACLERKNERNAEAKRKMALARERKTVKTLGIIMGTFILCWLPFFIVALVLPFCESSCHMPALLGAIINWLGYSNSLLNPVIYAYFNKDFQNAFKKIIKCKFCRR
In words: 5-HT1A receptor binding, displacement of 3H-8-OH DPAT (procedure of Hall et al.). The settings on record: for inhibition at 0.1 µM: read-out: Affinity for 5-HT1A Receptor Sites, % Inhibition at 100 nM; for Ki: Ki calculated from IC50 values, read-out: Affinity for 5-HT1A Receptor Sites, Ki.
Text: The serotoninergic properties of the compounds of this invention were established by the procedure of Hall et al., J. Neurochem.

The target of a further test is T2, D2 receptor (Rattus norvegicus, UniProt P61169).
T2 construct: from tissue
In words: D2 receptor affinity, reduction of 3H-spiroperidol binding. The settings on record: read-out: Affinity for D2 Receptor Sites, % Inhibition at 1 μM. On the procedure:
The percentage reduction of ^3 H-spiroperidol binding at 1 μM concentration of test compound is reported, infra.

The conditions of test [2]: background, U.S. Pat. No. 4,818,756; cited from earlier work.
Where [3] appears, read: 100 nM test compound, 3H-8-OH DPAT.
The mark [4] stands for this setting: 1 μM test compound, 3H-spiroperidol.

Structures can show the parent of a compound that is named as a salt. Where two headings read alike, the source gives them in different places.

T2 sequence (P61169 whole entry): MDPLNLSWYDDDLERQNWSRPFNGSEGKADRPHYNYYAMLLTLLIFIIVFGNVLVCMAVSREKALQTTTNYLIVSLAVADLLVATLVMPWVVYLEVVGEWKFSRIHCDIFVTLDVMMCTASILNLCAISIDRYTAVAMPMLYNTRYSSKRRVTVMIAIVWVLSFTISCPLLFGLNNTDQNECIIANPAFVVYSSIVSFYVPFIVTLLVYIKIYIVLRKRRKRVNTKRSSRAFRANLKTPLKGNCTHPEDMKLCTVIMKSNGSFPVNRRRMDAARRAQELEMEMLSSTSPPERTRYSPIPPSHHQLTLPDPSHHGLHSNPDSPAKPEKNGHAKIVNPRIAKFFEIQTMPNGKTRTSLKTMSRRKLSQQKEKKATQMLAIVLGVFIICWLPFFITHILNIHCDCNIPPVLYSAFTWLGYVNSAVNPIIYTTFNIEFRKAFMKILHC

For the molecule `O=C1CC2(CCCC2)CC(=O)N1CCCCN1CCN(c2ncccn2)CC1` [Buspirone, 8-[4-[-4-(2-pyrimidinyl)-1-piperazinyl]butyl]-8-azaspiro[4.5]decane-7,9-dione], the “binding at the 5-HT1A site (in words)” value in the test with 5-HT1A receptor was “demonstrate binding at the 5-HT1A site”.

In general, inhibition refers to the percentage by which the read-out fell short of the control. As a reminder, the Ki is the dissociation constant of the complex between target and ligand, obtained from inhibition or displacement. As for `O=C(CCN1CCN(c2cccc(Cl)c2)CC1)N1CC2CC3CC(C2)CC1C3` [Example 1, 1-(4-Azatricyclo[4.3.1.1(3,8)]undec-4-yl)-3-[4-(3-chlorophenyl)-1-piperazinyl]-1-propanone], the inhibition at 0.1 µM in test [1] (setting [3]) was 78%. The Ki in test [1] (3H-8-OH DPAT) is 30 nM. Besides, the inhibition at 1 µM on D2 receptor (setting [4]) was 42%.

As to `Clc1cccc(N2CCN(CCCN3CC4CC5CC(C4)CC3C5)CC2)c1` [Example 2, 4-[3-[4-(3-Chlorophenyl)-1-piperazinyl]propyl]-4-azatricyclo[4.3.1.1(3,8)]undecane Dihydrochloride One Third Hydrate], the inhibition at 0.1 µM in test [1] (setting [3]) came out at 47%.

With `COc1ccccc1N1CCN(CCC(=O)N2CC3CC4CC(C3)CC2C4)CC1` [Example 3, 1-(4-Azatricyclo[4.3.1.1(3,8)]undec-4-yl)-3-[4-(2-methoxyphenyl)-1-piperazinyl]-1-propanone Dihydrochloride Hydrate], the inhibition at 0.1 µM in test [1] stood at 92%. Besides, the inhibition at 1 µM at D2 receptor was determined as 71%.

For the molecule `COc1ccccc1N1CCN(CCCN2CC3CC4CC(C3)CC2C4)CC1` [Example 4, 4-[3-[4-(2-Methoxyphenyl)-1-piperazinyl]propyl]-4-azatricyclo[4.3.1.1(3,8)]undecane Trihydrochloride One Quarter Hydrate], the inhibition at 0.1 µM in test [1] (setting [3]) turned out to be 72%. Moreover, in test [1] (3H-8-OH DPAT), the Ki is 33 nM. On D2 receptor (setting [4]), the inhibition at 1 µM amounted to 14%.

`O=C(CCN1CCN(c2ncccn2)CC1)N1CC2CC3CC(C2)CC1C3` [Example 5, 1-(4-Azatricyclo[4.3.1.1(3,8)]undec-4-yl)-3-[4-(2-pyrimidinyl)-1-piperazinyl]-1-propanone]: in test [1] (setting [3]), the inhibition at 0.1 µM stood at 46%.

Turning to `O=C1c2ccccc2S(=O)(=O)N1CCCCN1CCN(c2ncccn2)CC1` [TVX Q 7821, 2-[4-[4-(2-pyrimidinyl)-1-piperazinyl]buyl]-1,2-benzisothiazol-3-(2H)one-1,1-dioxide hydrochloride], the “antidepressant activity (in words)” value in test [2] was “found to possess antidepressant activity”. The “binding at the 5-HT1A site (in words)” value in the test on 5-HT1A receptor is recorded as “demonstrate binding at the 5-HT1A site”.

Take `CCCC(C)C1(CC)C(=O)NC(=O)NC1=O` (centres unmarked) [pentobarbital]: the “binding at the 5-HT1A site (in words)” value in the test on 5-HT1A receptor is on record as “do not act via the 5-HT1A receptor”.
